Residues, ends and D or L forms follow the SMILES beside them.
How the values were obtained:
Assay type in all cases: cell-based
human NMUR2 receptor [1] = biological target: T1, human NMUR2 receptor (Homo sapiens, UniProt Q9GZQ4); experiment: IP1 Gq HTRF assay, activation of human NMUR2 in human plasma; parameters: expressed in transfected cells; host or cells: CHO-K1; conditions: CHO-K1 cells expressing human NMUR2, 100% human plasma; read-out: EC50 (hNMUR2) human plasma
Method in brief: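 CHO-K1 cells stably expressing human NMUR2 exposed to peptide agonists (8-point dose-response) in 100% human plasma with 50 mM LiCl, 1% DMSO, for 1 h at 37° C. IP1 accumulation read by HTRF competition (665/620 nm ratio). EC50 from 4-parameter sigmoidal fit.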

human NMUR1 receptor = biological target: T2, human NMUR1 receptor (Homo sapiens, UniProt Q9HB89); experiment: IP1 Gq HTRF assay, activation of human NMUR1 in buffer; conditions: CHO-K1 cells expressing human NMUR1, stimulation buffer with 0.1% BSA; read-out: EC50 (hNMUR1) buffer
T2 construct: expressed in transfected cells; host or cells: CHO-K1
T2 sequence (Q9HB89 1-426): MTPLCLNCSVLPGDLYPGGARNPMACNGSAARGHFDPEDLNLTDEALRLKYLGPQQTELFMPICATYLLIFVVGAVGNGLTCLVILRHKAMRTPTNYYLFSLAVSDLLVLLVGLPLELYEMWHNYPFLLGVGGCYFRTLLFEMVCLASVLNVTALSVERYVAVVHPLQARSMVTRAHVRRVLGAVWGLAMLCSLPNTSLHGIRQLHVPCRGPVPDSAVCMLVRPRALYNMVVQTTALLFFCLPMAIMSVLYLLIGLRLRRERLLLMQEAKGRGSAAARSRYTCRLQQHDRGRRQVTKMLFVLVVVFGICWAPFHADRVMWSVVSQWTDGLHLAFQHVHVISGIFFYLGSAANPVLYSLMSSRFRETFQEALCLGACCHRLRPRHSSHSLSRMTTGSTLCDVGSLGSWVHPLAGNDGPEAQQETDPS
Method in brief: (§1)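 CHO-K1 cells stably expressing human NMUR1 or NMUR2, seeded 24 h before assay, stimulated with peptide agonists (8-point dose-response, 1% DMSO final) in HEPES/HBSS buffer with 50 mM LiCl and 0.1% BSA, pH 7.4, 1 h at 37 °C. IP1 accumulation read by HTRF competition (665/620 nm); EC50 from 4-parameter sigmoidal fit.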

human NMUR2 receptor [2] = biological target: T1, human NMUR2 receptor; experiment: IP1 Gq HTRF assay, activation of human NMUR2 in buffer; parameters: expressed in transfected cells; host or cells: CHO-K1; conditions: CHO-K1 cells expressing human NMUR2, stimulation buffer with 0.1% BSA; read-out: EC50 (hNMUR2) buffer
Method in brief: as §1

T1 sequence (Q9GZQ4 whole entry): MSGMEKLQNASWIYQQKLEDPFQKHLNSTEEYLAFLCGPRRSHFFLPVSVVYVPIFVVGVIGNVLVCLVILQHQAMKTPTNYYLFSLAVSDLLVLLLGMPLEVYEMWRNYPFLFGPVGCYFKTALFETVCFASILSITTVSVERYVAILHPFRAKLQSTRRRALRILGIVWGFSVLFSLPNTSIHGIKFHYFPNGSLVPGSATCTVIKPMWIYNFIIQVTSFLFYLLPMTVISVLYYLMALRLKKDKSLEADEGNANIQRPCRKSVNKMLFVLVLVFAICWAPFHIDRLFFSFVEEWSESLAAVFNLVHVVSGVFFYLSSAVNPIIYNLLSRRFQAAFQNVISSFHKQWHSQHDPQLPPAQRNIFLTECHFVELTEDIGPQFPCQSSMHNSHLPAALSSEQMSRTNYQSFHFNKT

| Compound | EC50 (human NMUR2 receptor [1]) | EC50 (human NMUR1 receptor) | EC50 (human NMUR2 receptor [2]) |
| --- | --- | --- | --- |
| CCCC[C@H](NC(=O)[C@H](CC(C)C)N(C)C(=O)[C@H](Cc1ccccc1)NC(=O)[C@H](Cc1ccc(O)cc1)NC(=O)CN1CCN(CCNC(=O)CN(C)C(=O)CN(C)C(=O)CN(C)C(=O)CN(C)C(=O)CN(C)C(=O)CN(C)C(=O)CN(C)C(=O)CN(C)C(=O)CN(C)C(=O)CC[C@H](NC(=O)CC[C@H](NC(=O)CCCCCCCCCCCCCCCCC(=O)O)C(=O)O)C(=O)O)CC1)C(=O)N[C@@H](CCCN)C(=O)N(C)[C@@H](C)C(=O)N[C@@H](CCCNC(=N)N)C(=O)NCC(N)=O [Compound 44, C18DA-gGlu2-Sar9-AEPipAc-Tyr-Phe-NMeLeu-Nle-Orn-NMeAla-Arg-Gly-NH2] (HELM PEPTIDE1{[O=C(O)CCCCCCCCCCCCCCCCC(=O)[*:2]].[gGlu].[gGlu].[Sar].[Sar].[Sar].[Sar].[Sar].[Sar].[Sar].[Sar].[Sar].[O=C(CN1CCN(CCN[*:1])CC1)[*:2]].Y.F.[meL].[Nle].[Orn].[meA].R.G.[am]}$$$$V2.0) | 20.5 nM | > 1000 nM | 2.2 nM |
| CCCC[C@H](NC(=O)[C@H](CC(C)C)N(C)C(=O)[C@H](Cc1ccccc1)NC(=O)[C@H](Cc1ccc(O)cc1)NC(=O)CN1CCN(CCNC(=O)CN(C)C(=O)CN(C)C(=O)CN(C)C(=O)CN(C)C(=O)CN(C)C(=O)CN(C)C(=O)CN(C)C(=O)CN(C)C(=O)CN(C)C(=O)CN(C)C(=O)CN(C)C(=O)CN(C)C(=O)CN(C)C(=O)CN(C)C(=O)CN(C)C(=O)CC[C@H](NC(=O)CC[C@H](NC(=O)CC[C@H](NC(=O)CC[C@H](NC(=O)CCCCCCCCCCCCCCCCCCC(=O)O)C(=O)O)C(=O)O)C(=O)O)C(=O)O)CC1)C(=O)N[C@@H](CCCN)C(=O)N1CCC[C@H]1C(=O)N[C@@H](CCCNC(=N)N)C(=O)NCC(N)=O [Compound 3, C20DA-gGlu4-Sar15-AEPipAc-Tyr-Phe-NMeLeu-Nle-Orn-Pro-Arg-Gly-NH2] (HELM PEPTIDE1{[O=C(O)CCCCCCCCCCCCCCCCCCC(=O)[*:2]].[gGlu].[gGlu].[gGlu].[gGlu].[Sar].[Sar].[Sar].[Sar].[Sar].[Sar].[Sar].[Sar].[Sar].[Sar].[Sar].[Sar].[Sar].[Sar].[Sar].[O=C(CN1CCN(CCN[*:1])CC1)[*:2]].Y.F.[meL].[Nle].[Orn].P.R.G.[am]}$$$$V2.0) | 5.6 nM | 440 nM | 1.9 nM |
| CCCC[C@H](NC(=O)[C@H](CC(C)C)N(C)C(=O)[C@H](Cc1ccccc1)NC(=O)[C@H](Cc1ccc(O)cc1)NC(=O)CN1CCN(CCNC(=O)CN(C)C(=O)CN(C)C(=O)CN(C)C(=O)CN(C)C(=O)CN(C)C(=O)CN(C)C(=O)CN(C)C(=O)CN(C)C(=O)CN(C)C(=O)CN(C)C(=O)CN(C)C(=O)CN(C)C(=O)CN(C)C(=O)CN(C)C(=O)CN(C)C(=O)CC[C@H](NC(=O)CC[C@H](NC(=O)CC[C@H](NC(=O)CCCCCCCCCCCCCCCCCCC(=O)O)C(=O)O)C(=O)O)C(=O)O)CC1)C(=O)N[C@@H](CCCCN)C(=O)N(C)[C@@H](C)C(=O)N[C@@H](CCCNC(=N)N)C(=O)NCC(N)=O [Compound 50, C20DA-gGlu3-Sar15-AEPipAc-Tyr-Phe-NMeLeu-Nle-Lys-NMeAla-Arg-Gly-NH2] (HELM PEPTIDE1{[O=C(O)CCCCCCCCCCCCCCCCCCC(=O)[*:2]].[gGlu].[gGlu].[gGlu].[Sar].[Sar].[Sar].[Sar].[Sar].[Sar].[Sar].[Sar].[Sar].[Sar].[Sar].[Sar].[Sar].[Sar].[Sar].[O=C(CN1CCN(CCN[*:1])CC1)[*:2]].Y.F.[meL].[Nle].K.[meA].R.G.[am]}$$$$V2.0) | 69.9 nM | > 1000 nM | 23 nM |

Source: US20240279278A1, “NMU RECEPTOR 2 AGONISTS” (Boehringer Ingelheim International GmbH, priority 2023, published 2024)
